How the values were obtained:
[1] = test system: monocytic THP1 cells infected with HIV VSV-G pseudotyped GFP-NEF reporter virus; assay: cells; assay type: cell-based; details: Human immunodeficiency virus 1, THP-1, 24 h
[2] = test system: CD4 cells, isolated from healthy donor PMBCs, infected with HIV VSV-G pseudotyped GFP-GAG reporter virus; assay: tissue or blood; assay type: cell-based; details: Homo sapiens, 72 h

| Structure (SMILES) | EC50 [1] [nM] | EC50 [2] [nM] |
| --- | --- | --- |
| Cc1cc(/C=C/C#N)cc(C)c1Oc1nc(NC23CC(C#N)(C2)C3)nc2scnc12 [Compound 56, (E)-3-((7-(4-(2-cyanovinyl)-2,6-dimethylphenoxy)thiazolo[5,4-d]pyrimidin-5-yl)amino)bicyclo[1.1.1]pentane-1-carbonitrile] | 142 | 96.6 |
| Cc1cc(/C=C/C#N)cc(C)c1Oc1nc(NC23CC(C#N)(C2)C3)nc2c1CCN2 [Compound 130, 3-[[4-[4-[(E)-2-cyanovinyl]-2,6-dimethyl-phenoxy]-6,7-dihydro-5H-pyrrolo[2,3-d]pyrimidin-2-yl]amino]bicyclo[11.1.1]pentane-1-carbonitrile] | 221 | 56 |
| Cc1cc(/C=C/C#N)cc(C)c1Oc1nc(NC23CC(C#N)(C2)C3)nc2ncn(CC(F)(F)F)c12 [Compound 106, (E)-3-((6-(4-(2-cyanovinyl)-2,6-dimethylphenoxy)-7-(2,2,2-trifluoroethyl)-7H-purin-2-yl)amino)bicyclo[1.1.1]pentane-1-carbonitrile] | 216 | 237 |
| COc1ccc(Cn2cnc3nc(NC45CC(C#N)(C4)C5)nc(Oc4c(C)cc(/C=C/C#N)cc4C)c32)cc1 [Compound 43, (E)-3-((6-(4-(2-cyanovinyl)-2,6-dimethylphenoxy)-7-(4-methoxybenzyl)-7H-purin-2-yl)amino)bicyclo[1.1.1]pentane-1-carbonitrile] | 90.5 | 87.7 |
| Cc1nc2nc(NC34CC(C#N)(C3)C4)nc(Oc3c(C)cc(/C=C/C#N)cc3C)c2[nH]1 [Compound 14, (E)-3-((6-(4-(2-cyanovinyl)-2,6-dimethylphenoxy)-8-methyl-7H-purin-2-yl)amino)bicyclo[1.1.1]pentane-1-carbonitrile] | 81.3 | 84.2 |
| Cc1cc(/C=C/C#N)cc(C)c1Oc1nc(NC23CC(C#N)(C2)C3)nc2[nH]ncc12 [Compound 10, (E)-3-((4-(4-(2-cyanovinyl)-2,6-dimethylphenoxy)-1H-pyrazolo[3,4-d]pyrimidin-6-yl)amino)bicyclo[1.1.1]pentane-1-carbonitrile] | 65.9 | 54.7 |
| Cc1cc(/C=C/C#N)cc(C)c1Oc1nc(NC23CC(C#N)(C2)C3)nc2[nH]nnc12 [Compound 80, €-3-((7-(4-(2-cyanovinyl)-2,6-dimethylphenoxy)-3H-[1,2,3]triazolo[4,5-d]pyrimidin-5-yl)amino)bicyclo[1.1.1]pentane-1-carbonitrile] | 593 | 551 |
| Cc1cc(/C=C/C#N)cc(C)c1Oc1nc(NC23CC(C#N)(C2)C3)nc2nc(-c3cnn(C)c3)[nH]c12 [Compound 64, (E)-3-((6-(4-(2-cyanovinyl)-2,6-dimethylphenoxy)-8-(1-methyl-1H-pyrazol-4-yl)-7H-purin-2-yl)amino)bicyclo[1.1.1]pentane-1-carbonitrile] | 123 | 274 |
| Cc1cc(/C=C/C#N)cc(C)c1Oc1nc(NC23CC(C#N)(C2)C3)nc2c1nnn2C [Compound 129, 3-[[7-[4-[(E)-2-cyanovinyl]-2,6-dimethyl-phenoxy]-3-methyl-triazolo[4,5-d]pyrimidin-5-yl]amino]bicyclo[11.1.1]pentane-1-carbonitrile] | 168 | 131 |
| Cc1cc(/C=C/C#N)cc(C)c1OC1=NC(NC23CC(C#N)(C2)C3)=NC2N=CN(C)C12 (stereo not shown) [Compound 89, (E)-3-((6-(4-(2-cyanovinyl)-2,6-dimethylphenoxy)-7-methyl-4,5-dihydro-7H-purin-2-yl)amino)bicyclo[1.1.1]pentane-1-carbonitrile] | 24.4 | 16.6 |
| Cc1cc(/C=C/C#N)cc(C)c1Oc1nc(NC23CC(C#N)(C2)C3)nc2nc(C3CCC3)[nH]c12 [Compound 50, (E)-3-((6-(4-(2-cyanovinyl)-2,6-dimethylphenoxy)-8-cyclobutyl-7H-purin-2-yl)amino)bicyclo[1.1.1]pentane-1-carbonitrile] | 166 | 151 |
| Cc1cc(/C=C/C#N)cc(C)c1Oc1nc(NC23CC(C#N)(C2)C3)nc2c1c(C)nn2C [Compound 148, (E)-3-((4-(4-(2-cyanovinyl)-2,6-dimethylphenoxy)-1,3-dimethyl-1H-pyrazolo[3,4-d]pyrimidin-6-yl)amino)bicyclo[1.1.1]pentane-1-carbonitrile] | 48.1 | 41 |
| Cc1cc(/C=C/C#N)cc(C)c1Oc1nc(NC23CC(C#N)(C2)C3(F)F)nc2nn(C)cc12 [Compound 76, (E)-3-((4-(4-(2-cyanovinyl)-2,6-dimethylphenoxy)-2-methyl-2H-pyrazolo[3,4-d]pyrimidin-6-yl)amino)-2,2-difluorobicyclo[1.1.1]pentane-1-carbonitrile] | 25.3 | 19.3 |
| Cc1cc(/C=C/C#N)cc(C)c1Oc1nc(NC23CC(C#N)(C2)C3)nc2c1ncn2C(C)C [Compound 113, (E)-3-((6-(4-(2-cyanovinyl)-2,6-dimethylphenoxy)-9-isopropyl-9H-purin-2-yl)amino)bicyclo[1.1.1]pentane-1-carbonitrile] | 168 | 102 |
| Cc1cc(/C=C/C#N)cc(C)c1Oc1nc(NC23CC(C4COC4)(C2)C3)nc2[nH]nc(C)c12 [Compound 154, (E)-3-(3,5-dimethyl-4-((3-methyl-6-((3-(oxetan-3-yl)bicyclo[1.1.1]pentan-1-yl)amino)-1H-pyrazolo[3,4-d]pyrimidin-4-yl)oxy)phenyl)acrylonitrile] | 235 | 324 |
| Cc1nc2c(Nc3c(C)cc(/C=C/C#N)cc3C)nc(NC34CC(C#N)(C3)C4)nc2s1 [Compound 55, (E)-3-((7-((4-(2-cyanovinyl)-2,6-dimethylphenyl)amino)-2-methylthiazolo[5,4-d]pyrimidin-5-yl)amino)bicyclo[1.1.1]pentane-1-carbonitrile] | 130 | 25.9 |
| Cc1cc(/C=C/C#N)cc(C)c1Oc1nc(NC23CC(C#N)(C2)C3)nc2c1COC2 [Compound 117] | – | 23.9 |
| Cc1nc2nc(NC34CC(C#N)(C3)C4)nc(Oc3c(C)cc(/C=C/C#N)cc3C)c2s1 [Compound 124, 3-[[7-[4-[(E)-2-cyanovinyl]-2,6-dimethyl-phenoxy]-2-methyl-thiazolo[4,5-d]pyrimidin-5-yl]amino]bicyclo[11.1.1]pentane-1-carbonitrile] | 61.7 | 27 |
| Cc1cc(/C=C/C#N)cc(C)c1Oc1nc(NC23CC(C#N)(C2)C3)nc2cc[nH]c12 [Compound 115, (E)-3-((4-(4-(2-cyanovinyl)-2,6-dimethylphenoxy)-5H-pyrrolo[3,2-d]pyrimidin-2-yl)amino)bicyclo[1.1.1]pentane-1-carbonitrile] | 99.4 | 111 |
| CCn1cnc2nc(NC34CC(C#N)(C3)C4)nc(Oc3c(C)cc(/C=C/C#N)cc3C)c21 [Compound 114, (E)-3-((6-(4-(2-cyanovinyl)-2,6-dimethylphenoxy)-7-ethyl-7H-purin-2-yl)amino)bicyclo[1.1.1]pentane-1-carbonitrile] | – | 51.1 |
| COC(=O)N1Cc2nc(NC34CC(C#N)(C3)C4)nc(Oc3c(C)cc(/C=C/C#N)cc3C)c2C1 [Compound 151, (E)-methyl 2-((3-cyanobicyclo[1.1.1]pentan-1-yl)amino)-4-(4-(2-cyanovinyl)-2,6-dimethylphenoxy)-5H-pyrrolo[3,4-d]pyrimidine-6(7H)-carboxylate] | – | 76 |
| Cc1cc(/C=C/C#N)cc(C)c1Oc1nc(NC23CC(C#N)(C2)C3)nc2[nH]nc(C#N)c12 [Compound 112, (E)-6-((3-cyanobicyclo[1.1.1]pentan-1-yl)amino)-4-(4-(2-cyanovinyl)-2,6-dimethylphenoxy)-1H-pyrazolo[3,4-d]pyrimidine-3-carbonitrile] | 745 | 294 |
| Cc1cc(/C=C/C#N)cc(C)c1Oc1nc(NC23CC(C#N)(C2)C3)nc2[nH]c(=O)[nH]c12 [Compound 27, (E)-3-((6-(4-(2-cyanovinyl)-2,6-dimethylphenoxy)-8-oxo-8,9-dihydro-7H-purin-2-yl)amino)bicyclo[1.1.1]pentane-1-carbonitrile] | 68.3 | 99.4 |
| Cc1cc(/C=C/C#N)cc(C)c1Oc1nc(NC23CC(C#N)(C2)C3)nc2nc(C(C)(C)O)[nH]c12 [Compound 60, (E)-3-((6-(4-(2-cyanovinyl)-2,6-dimethylphenoxy)-8-(2-hydroxypropan-2-yl)-7H-purin-2-yl)amino)bicyclo[1.1.1]pentane-1-carbonitrile] | 373 | 175 |
| Cc1cc(/C=C/C#N)cc(C)c1Oc1nc(NC23CC(C#N)(C2)C3)nc2c1CN(C)C2 [Compound 150, (E)-3-((4-(4-(2-cyanovinyl)-2,6-dimethylphenoxy)-6-methyl-6,7-dihydro-5H-pyrrolo[3,4-d]pyrimidin-2-yl)amino)bicyclo[1.1.1]pentane-1-carbonitrile] | 99.2 | 110 |
| Cc1cc(/C=C/C#N)cc(C)c1Oc1nc(NC23CC(C#N)(C2)C3)nc2c1cnn2C [Compound 128, 3-[[4-[4-[(E)-2-cyanovinyl]-2,6-dimethyl-phenoxy]-1-methyl-pyrazolo[3,4-d]pyrimidin-6-yl]amino]bicyclo[11.1.1]pentane-1-carbonitrile] | 131 | 106 |
| Cc1cc(/C=C/C#N)cc(C)c1Oc1nc(NC23CC(C#N)(C2)C3)nc2c1CSC2 [Compound 116, (E)-3-((4-(4-(2-cyanovinyl)-2,6-dimethylphenoxy)-5,7-dihydrothieno[3,4-d]pyrimidin-2-yl)amino)bicyclo[1.1.1]pentane-1-carbonitrile] | – | 63.3 |
| Cc1cc(/C=C/C#N)cc(Cl)c1Oc1nc(NC23CC(C#N)(C2)C3)nc2[nH]nc(C)c12 [Compound 85, (E)-3-((4-(2-chloro-4-(2-cyanovinyl)-6-methylphenoxy)-3-methyl-1H-pyrazolo[3,4-d]pyrimidin-6-yl)amino)bicyclo[1.1.1]pentane-1-carbonitrile] | – | 20.9 |
| Cc1nc2nc(NC34CC(C#N)(C3)C4)nc(Oc3c(Cl)cc(/C=C/C#N)cc3Cl)c2[nH]1 [Compound 59, (E)-3-((6-(2,6-dichloro-4-(2-cyanovinyl)phenoxy)-8-methyl-7H-purin-2-yl)amino)bicyclo[1.1.1]pentane-1-carbonitrile] | – | 336 |
